Laboratory results reported in ChEMBL document CHEMBL1201862, “PubChem BioAssay data set” (2004).
Calls of active or inactive are those of the source.

Experiments:
[1] = target: Protein kinase C theta type (Homo sapiens, UniProt Q04759); assay: Navigating the Kinome. Panel member name: PRKCQ; assay type: functional
[2] = target: Serine/threonine-protein kinase PLK3 (Homo sapiens, UniProt Q9H4B4); assay type: functional
[3] = target: RAC-gamma serine/threonine-protein kinase (Homo sapiens, UniProt Q9Y243); assay type: functional
[4] = target: Serine/threonine-protein kinase PLK4 (Homo sapiens, UniProt O00444); assay type: functional;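 further: PLK4 measured as one member of a kinome-wide kinase profiling panel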
[5] = target: Serine/threonine-protein kinase pim-1 (Homo sapiens, UniProt P11309); assay type: functional
Serine/threonine-protein kinase pim-1, sequence (P11309 whole entry): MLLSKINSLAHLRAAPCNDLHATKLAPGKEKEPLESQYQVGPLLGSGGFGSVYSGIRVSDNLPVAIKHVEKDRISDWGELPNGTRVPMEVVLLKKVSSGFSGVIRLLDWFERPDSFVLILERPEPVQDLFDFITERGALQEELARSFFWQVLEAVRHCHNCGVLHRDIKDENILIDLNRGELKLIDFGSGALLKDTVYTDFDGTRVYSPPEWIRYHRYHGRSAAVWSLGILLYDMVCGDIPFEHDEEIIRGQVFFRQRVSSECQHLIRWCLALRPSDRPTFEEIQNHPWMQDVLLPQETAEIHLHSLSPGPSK

Aurora kinase A = Aurora kinase A (Homo sapiens, UniProt O14965); assay type: functional;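 further: value from the Navigating the Kinome kinase panel profiling, panel entry STK6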
Aurora kinase A, sequence (O14965 whole entry): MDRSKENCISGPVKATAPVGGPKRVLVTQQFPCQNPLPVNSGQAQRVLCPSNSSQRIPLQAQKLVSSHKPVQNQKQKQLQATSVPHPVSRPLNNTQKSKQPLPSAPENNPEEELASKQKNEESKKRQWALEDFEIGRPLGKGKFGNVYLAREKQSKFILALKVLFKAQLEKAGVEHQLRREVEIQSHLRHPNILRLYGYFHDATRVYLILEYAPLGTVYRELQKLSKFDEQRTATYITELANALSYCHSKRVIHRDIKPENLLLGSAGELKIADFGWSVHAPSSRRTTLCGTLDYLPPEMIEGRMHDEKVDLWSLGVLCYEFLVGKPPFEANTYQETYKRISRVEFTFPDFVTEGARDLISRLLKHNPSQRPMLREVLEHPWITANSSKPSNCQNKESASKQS

[6] = target: Fibroblast growth factor receptor 1 (Homo sapiens, UniProt P11362); assay type: functional
Insulin receptor = Insulin receptor (Homo sapiens, UniProt P06213); assay type: functional;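 further: insulin receptor kinase tested as one member of a kinome-wide kinase panel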
Insulin receptor, sequence (P06213 28-758 limits assumed): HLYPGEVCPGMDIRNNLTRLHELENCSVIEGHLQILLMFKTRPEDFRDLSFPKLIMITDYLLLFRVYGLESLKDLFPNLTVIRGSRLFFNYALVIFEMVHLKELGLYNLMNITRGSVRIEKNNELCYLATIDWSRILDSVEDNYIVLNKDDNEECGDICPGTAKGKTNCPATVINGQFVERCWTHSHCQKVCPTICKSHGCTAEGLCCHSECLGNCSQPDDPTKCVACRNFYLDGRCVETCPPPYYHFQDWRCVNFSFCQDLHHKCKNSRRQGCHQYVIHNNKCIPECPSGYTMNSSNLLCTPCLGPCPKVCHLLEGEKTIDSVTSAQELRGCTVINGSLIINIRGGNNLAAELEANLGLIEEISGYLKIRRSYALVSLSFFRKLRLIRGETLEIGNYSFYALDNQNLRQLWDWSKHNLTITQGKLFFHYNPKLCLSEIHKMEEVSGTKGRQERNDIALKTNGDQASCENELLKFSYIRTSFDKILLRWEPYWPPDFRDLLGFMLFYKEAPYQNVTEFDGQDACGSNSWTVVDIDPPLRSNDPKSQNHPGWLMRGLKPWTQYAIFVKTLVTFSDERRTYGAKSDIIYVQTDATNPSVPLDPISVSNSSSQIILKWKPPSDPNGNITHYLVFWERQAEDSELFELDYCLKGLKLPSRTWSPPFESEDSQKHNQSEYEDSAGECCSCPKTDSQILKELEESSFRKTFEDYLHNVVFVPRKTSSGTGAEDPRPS
Insulin receptor, sequence (P06213 763-1382 limits assumed): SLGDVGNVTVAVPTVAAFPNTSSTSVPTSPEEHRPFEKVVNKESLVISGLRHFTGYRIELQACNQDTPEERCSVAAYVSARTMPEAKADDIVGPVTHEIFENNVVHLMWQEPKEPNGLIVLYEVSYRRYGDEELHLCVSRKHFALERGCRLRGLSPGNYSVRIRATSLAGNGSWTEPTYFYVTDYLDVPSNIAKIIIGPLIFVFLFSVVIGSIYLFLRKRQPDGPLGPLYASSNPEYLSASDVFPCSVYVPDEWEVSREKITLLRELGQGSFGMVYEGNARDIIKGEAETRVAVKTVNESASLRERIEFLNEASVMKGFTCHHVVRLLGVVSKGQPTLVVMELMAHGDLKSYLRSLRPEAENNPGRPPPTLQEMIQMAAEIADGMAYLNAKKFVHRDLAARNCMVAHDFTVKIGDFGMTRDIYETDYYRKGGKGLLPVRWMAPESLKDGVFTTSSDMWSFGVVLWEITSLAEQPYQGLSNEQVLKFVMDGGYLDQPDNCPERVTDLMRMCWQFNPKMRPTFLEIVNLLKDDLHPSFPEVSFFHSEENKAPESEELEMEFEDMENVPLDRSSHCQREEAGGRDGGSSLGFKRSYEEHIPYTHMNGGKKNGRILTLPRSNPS

[7] = target: Serine/threonine-protein kinase pim-3 (Homo sapiens, UniProt Q86V86); assay type: functional;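 further: value obtained as one member of a broad kinase panel profiling effort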
[8] = target: Platelet-derived growth factor receptor beta (Homo sapiens, UniProt P09619); assay type: functional;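 further: value comes from a kinome panel, with PDGFRB tested as one panel member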
Platelet-derived growth factor receptor beta, sequence (P09619 whole entry): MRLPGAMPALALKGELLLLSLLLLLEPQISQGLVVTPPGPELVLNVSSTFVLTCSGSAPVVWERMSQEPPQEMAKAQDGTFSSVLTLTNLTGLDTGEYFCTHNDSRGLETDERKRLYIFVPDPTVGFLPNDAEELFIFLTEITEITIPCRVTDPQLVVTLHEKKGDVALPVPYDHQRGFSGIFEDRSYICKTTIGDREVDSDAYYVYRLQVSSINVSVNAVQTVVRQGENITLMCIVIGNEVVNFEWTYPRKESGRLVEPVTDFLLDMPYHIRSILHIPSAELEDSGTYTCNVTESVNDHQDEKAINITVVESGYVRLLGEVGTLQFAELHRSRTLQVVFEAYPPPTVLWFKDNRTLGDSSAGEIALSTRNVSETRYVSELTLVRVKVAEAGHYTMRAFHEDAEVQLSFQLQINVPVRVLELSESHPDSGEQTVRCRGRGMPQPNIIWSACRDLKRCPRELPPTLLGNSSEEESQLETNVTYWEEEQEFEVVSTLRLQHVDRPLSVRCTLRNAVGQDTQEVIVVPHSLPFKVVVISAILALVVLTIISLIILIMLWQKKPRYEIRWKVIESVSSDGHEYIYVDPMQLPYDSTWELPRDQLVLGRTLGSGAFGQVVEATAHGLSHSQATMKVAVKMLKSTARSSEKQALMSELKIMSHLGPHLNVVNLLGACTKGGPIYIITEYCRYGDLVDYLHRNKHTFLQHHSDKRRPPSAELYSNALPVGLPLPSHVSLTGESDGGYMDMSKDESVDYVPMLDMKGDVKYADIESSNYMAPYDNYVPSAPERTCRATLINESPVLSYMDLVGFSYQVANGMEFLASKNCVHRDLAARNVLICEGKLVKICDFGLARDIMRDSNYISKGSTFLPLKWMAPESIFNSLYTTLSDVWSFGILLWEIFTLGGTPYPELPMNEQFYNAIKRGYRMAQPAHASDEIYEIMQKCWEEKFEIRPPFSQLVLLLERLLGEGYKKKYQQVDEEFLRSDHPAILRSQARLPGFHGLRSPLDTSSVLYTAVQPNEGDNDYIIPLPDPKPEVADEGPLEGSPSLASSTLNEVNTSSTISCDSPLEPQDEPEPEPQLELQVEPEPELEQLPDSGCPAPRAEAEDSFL

[9] = target: T1, Receptor-type tyrosine-protein kinase FLT3 (Homo sapiens, UniProt P36888); assay type: functional;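 further: FLT3 was tested as one member of a kinome-wide kinase panel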
T1 sequence (P36888 whole entry): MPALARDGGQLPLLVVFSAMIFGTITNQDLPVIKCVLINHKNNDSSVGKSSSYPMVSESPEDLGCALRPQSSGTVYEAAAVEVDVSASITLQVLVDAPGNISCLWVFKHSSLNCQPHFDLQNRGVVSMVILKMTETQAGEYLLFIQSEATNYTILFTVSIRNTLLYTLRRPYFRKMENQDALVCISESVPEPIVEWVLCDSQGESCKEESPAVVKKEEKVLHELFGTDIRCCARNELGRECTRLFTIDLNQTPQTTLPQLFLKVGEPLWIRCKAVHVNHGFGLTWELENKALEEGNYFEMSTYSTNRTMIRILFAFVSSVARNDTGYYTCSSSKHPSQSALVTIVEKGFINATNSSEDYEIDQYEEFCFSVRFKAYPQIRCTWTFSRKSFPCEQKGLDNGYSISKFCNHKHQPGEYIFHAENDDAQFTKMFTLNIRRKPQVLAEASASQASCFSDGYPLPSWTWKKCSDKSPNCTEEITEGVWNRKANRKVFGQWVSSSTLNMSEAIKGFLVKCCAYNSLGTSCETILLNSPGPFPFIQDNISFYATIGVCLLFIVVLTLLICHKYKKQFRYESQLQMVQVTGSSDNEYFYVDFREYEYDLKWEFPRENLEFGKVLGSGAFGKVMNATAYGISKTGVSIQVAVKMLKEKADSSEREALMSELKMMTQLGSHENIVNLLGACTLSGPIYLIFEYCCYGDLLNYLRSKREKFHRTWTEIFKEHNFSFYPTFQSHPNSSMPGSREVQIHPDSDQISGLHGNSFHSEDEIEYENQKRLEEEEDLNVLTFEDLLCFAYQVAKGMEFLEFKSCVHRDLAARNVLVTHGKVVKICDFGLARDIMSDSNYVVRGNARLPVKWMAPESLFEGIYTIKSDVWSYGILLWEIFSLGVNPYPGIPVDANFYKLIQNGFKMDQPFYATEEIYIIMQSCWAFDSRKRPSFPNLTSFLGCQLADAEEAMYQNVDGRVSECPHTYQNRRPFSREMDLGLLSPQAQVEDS

[10] = target: Serine/threonine-protein kinase Chk1 (Homo sapiens, UniProt O14757); assay type: functional;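 further: measured as one member of a kinome-wide kinase profiling panel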
[11] = target: Vascular endothelial growth factor receptor 2 (Homo sapiens, UniProt P35968); assay type: functional
Aurora kinase B = Aurora kinase B (Homo sapiens, UniProt Q96GD4); assay type: functional
[12] = target: RAC-alpha serine/threonine-protein kinase (Homo sapiens, UniProt P31749); assay type: functional;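 further: AKT1 affinity measured as one member of a kinome-wide kinase profiling panel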
[13] = target: Cyclin-dependent kinase 19 (Homo sapiens, UniProt Q9BWU1); assay: Navigating the Kinome. Panel member name: CDC2L6; assay type: functional
[14] = target: Serine/threonine-protein kinase PLK1 (Homo sapiens, UniProt P53350); assay type: functional;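 further: PLK1 measured as one member of a kinome-wide profiling panel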
[15] = target: Cyclin-dependent kinase 9 (Homo sapiens, UniProt P50750); assay type: functional;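 further: value from the CDK9 entry of a kinome-spanning kinase panel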
Cyclin-dependent kinase 9, sequence (P50750 whole entry): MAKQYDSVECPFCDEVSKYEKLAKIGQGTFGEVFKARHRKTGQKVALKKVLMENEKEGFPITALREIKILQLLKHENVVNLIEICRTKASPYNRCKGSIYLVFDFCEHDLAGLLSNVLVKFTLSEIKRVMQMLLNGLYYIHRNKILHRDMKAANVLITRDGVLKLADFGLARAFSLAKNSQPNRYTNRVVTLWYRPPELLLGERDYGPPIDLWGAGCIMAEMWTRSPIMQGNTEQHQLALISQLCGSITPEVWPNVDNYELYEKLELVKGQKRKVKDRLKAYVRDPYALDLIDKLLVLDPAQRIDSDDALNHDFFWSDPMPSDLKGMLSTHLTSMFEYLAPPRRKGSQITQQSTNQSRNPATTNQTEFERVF

[16] = target: cAMP-dependent protein kinase catalytic subunit alpha (Homo sapiens, UniProt P17612); assay type: functional
[17] = target: Macrophage colony-stimulating factor 1 receptor (Homo sapiens, UniProt P07333); assay type: functional;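 further: value comes from the Navigating the Kinome screening panel, CSF1R member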
[18] = target: Dual specificity tyrosine-phosphorylation-regulated kinase 1A (Homo sapiens, UniProt Q13627); assay type: functional;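 further: measured against DYRK1A as one member of a broad kinome profiling panel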
[19] = decrease of insulin promoter-GFP reporter – imaging, high-content screening, mouse beta cells (AID 1628); assay type: functional; details: MIN6
[20] = MIN6 cell viability loss – mouse insulinoma, cytotoxicity control, dose response (AID 2122); assay type: functional;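 further: confirmatory high-throughput counterscreen run to flag cytotoxic compounds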
[21] = HPDE-C7 pancreatic duct cell viability loss – fluorescence, HTS (AID 430); assay type: functional, cell-based; details: Homo sapiens
[22] = Trypanosoma cruzi growth suppression in host cells – NIH3T3 host cells, beta-gal luminescence, confirmation (AID 2044); assay type: functional, cell-based;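 further: intracellular parasites grown in NIH/3T3 mouse fibroblasts as host cells; luminescent beta-galactosidase reporter signal from transgenic T. cruzi replicating inside host cells; inhibitors lower the luminescence signal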
[23] = viability loss of HPDE-C7K cells – cell-based, fluorescence, HTS, primary screen (AID 431); assay type: functional; details: Homo sapiens
[24] = NIH3T3 cell viability loss – ATP luminescence, mouse fibroblasts, counter-screen, dose response (AID 2010); assay type: functional, cell-based;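 further: cells exposed to compound for about 90 hours before reading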
[25] = target: C-C chemokine receptor type 6 (Homo sapiens, UniProt P51684); assay: antagonism of CCR6 beta-arrestin recruitment – cell-based, luminescent beta-arrestin readout, dose response (AID 504728); assay type: functional
Beta-galactosidase = Beta-galactosidase (Escherichia coli, UniProt Q8VNN2); assay: detection-enzyme interference by beta-gal modulators – biochemical, E. coli enzyme, set 3, artefact control for CCR6 antagonist project, dose response (AID 504712); assay type: functional
[26] = target: T2, Replicative DNA helicase DnaB (Mycobacterium tuberculosis, UniProt P9WMR3); assay: DnaB intein splicing inhibitors, dose response, biochemical, cell-free fluorescence (AID 449749); assay type: functional
T2 sequence (P9WMR3 whole entry): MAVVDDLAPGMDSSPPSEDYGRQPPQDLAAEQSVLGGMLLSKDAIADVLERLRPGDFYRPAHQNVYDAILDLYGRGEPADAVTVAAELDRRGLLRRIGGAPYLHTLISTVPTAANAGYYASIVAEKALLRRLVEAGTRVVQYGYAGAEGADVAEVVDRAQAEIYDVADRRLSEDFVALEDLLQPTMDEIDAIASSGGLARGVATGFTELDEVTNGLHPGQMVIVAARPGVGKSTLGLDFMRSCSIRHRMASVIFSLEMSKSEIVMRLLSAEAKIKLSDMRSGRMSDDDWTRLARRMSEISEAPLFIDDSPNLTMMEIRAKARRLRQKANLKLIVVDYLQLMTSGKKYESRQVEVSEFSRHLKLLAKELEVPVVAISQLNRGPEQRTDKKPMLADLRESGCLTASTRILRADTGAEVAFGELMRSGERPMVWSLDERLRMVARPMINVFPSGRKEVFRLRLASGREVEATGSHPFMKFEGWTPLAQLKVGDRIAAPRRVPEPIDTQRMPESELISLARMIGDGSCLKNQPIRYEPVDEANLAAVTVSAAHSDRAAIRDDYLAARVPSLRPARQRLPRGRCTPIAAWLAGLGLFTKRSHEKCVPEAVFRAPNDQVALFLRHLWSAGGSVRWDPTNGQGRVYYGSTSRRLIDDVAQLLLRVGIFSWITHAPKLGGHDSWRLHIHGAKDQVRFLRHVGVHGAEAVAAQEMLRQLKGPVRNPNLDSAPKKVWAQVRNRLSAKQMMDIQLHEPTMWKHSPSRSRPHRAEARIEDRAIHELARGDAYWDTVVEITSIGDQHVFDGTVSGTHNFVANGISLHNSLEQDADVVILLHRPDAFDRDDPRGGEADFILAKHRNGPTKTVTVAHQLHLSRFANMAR

[27] = target: Heat shock protein HSP 90-alpha (Homo sapiens, UniProt P07900); assay type: functional, organism-based
Protein RecA = target: T3, Protein RecA (Mycobacterium tuberculosis, UniProt P9WHJ3); assay: Fluorescence Cell-Free Homogeneous Dose Retest to Identify Inhibitors of RecA-Intein Splicing Activity. [Related pubchem assays (depositor defined):AID2097, AID2223, AID489010, AID492950]; assay type: functional
T3 sequence (P9WHJ3 whole entry): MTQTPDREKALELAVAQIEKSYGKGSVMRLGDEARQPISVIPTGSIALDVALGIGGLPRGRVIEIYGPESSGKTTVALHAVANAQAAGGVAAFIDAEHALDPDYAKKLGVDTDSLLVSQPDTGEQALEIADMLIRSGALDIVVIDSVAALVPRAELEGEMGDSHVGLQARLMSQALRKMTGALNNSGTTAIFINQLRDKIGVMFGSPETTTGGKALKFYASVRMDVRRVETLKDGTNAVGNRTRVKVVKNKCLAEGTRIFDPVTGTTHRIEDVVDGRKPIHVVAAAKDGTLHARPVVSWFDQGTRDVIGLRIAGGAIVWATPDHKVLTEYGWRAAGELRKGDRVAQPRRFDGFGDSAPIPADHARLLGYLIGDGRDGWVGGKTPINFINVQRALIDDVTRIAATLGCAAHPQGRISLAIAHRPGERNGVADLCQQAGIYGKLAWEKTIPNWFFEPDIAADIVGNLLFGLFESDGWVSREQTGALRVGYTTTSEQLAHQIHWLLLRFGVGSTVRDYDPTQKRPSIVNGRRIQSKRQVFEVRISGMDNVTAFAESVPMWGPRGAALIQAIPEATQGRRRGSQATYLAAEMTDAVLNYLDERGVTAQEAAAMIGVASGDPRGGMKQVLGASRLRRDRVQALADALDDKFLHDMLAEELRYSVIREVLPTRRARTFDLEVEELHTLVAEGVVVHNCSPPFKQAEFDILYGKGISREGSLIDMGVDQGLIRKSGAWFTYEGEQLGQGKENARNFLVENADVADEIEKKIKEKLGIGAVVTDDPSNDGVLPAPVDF

[28] = target: Beta-2 adrenergic receptor (Homo sapiens, UniProt P07550); assay: ADRB2 activation measured by internalization – cell-based, FAP fluorogen, flow cytometry, cherry pick 1, dose response (AID 588763); assay type: functional
Melanocortin receptor 4 = Melanocortin receptor 4 (Homo sapiens, UniProt P32245); assay: inhibitors of MC4R cAMP signaling – cell-based, TR-FRET, biased antagonists, dose response (AID 602298); assay type: functional;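 further: antagonist potency against agonist-stimulated cAMP production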
[29] = reduction of Shn3 3'UTR-driven luciferase in osteoblasts – cell-based, Clone20 osteoblasts, firefly luciferase, cherry-picked, dose response (AID 624132); assay type: functional;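 further: firefly luciferase luminescence from reporter carrying the Shn3 3'UTR in osteoblasts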
[30] = loss of viability in HepG2 cells – cell-based, CellTiter-Glo, cherry-picked, cytotoxicity control for Shn3 inhibitor project, dose response (AID 624134); assay type: functional
[31] = non-specific 3'UTR reporter inhibition in Clone20-Shn3RL – cell-based, Renilla luciferase, cherry-picked, counter-screen for Shn3 inhibitor project, dose response (AID 624133); assay type: functional
[32] = cAMP pathway inhibition in counterscreen cell line – TR-FRET cAMP detection, counter-screen for MC4R biased antagonist project, dose response (AID 602305); assay type: functional, cell-based;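 further: U2OS cells stimulated with forskolin near its EC80 as the cAMP inducer; potency is for inhibition of forskolin-stimulated cAMP signaling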
[33] = target: Mitogen-activated protein kinase 9 (Homo sapiens, UniProt P45984); assay type: functional;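 further: value from a kinome panel profiling assay, MAPK9 panel entry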
[34] = target: Mitogen-activated protein kinase 12 (Homo sapiens, UniProt P53778); assay type: functional;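 further: measured as one member of a kinome-wide kinase profiling panel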
[35] = target: Tyrosine-protein kinase Lck (Homo sapiens, UniProt P06239); assay type: functional;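 further: lck was assayed as one member of a kinase panel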
Activin receptor type-1 = Activin receptor type-1 (Homo sapiens, UniProt Q04771); assay: Navigating the Kinome. Panel member name: ACVR1; assay type: functional
Activin receptor type-1, sequence (Q04771 whole entry): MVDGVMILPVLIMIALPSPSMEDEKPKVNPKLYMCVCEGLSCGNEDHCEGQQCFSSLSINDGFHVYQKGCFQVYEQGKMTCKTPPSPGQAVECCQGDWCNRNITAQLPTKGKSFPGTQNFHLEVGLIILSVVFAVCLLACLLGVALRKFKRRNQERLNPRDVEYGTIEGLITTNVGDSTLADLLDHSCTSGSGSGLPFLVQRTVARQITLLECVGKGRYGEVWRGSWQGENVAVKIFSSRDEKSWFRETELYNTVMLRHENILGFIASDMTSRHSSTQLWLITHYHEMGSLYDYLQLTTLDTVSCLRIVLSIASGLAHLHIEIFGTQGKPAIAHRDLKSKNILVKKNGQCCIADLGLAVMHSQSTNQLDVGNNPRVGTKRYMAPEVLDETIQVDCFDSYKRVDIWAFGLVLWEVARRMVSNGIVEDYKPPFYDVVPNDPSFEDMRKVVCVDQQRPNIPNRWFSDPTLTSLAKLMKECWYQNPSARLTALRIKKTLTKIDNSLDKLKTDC

[36] = target: Proto-oncogene tyrosine-protein kinase Src (Homo sapiens, UniProt P12931); assay type: functional;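 further: SRC entry within a kinome-wide kinase profiling panel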
[37] = target: Platelet-derived growth factor receptor alpha (Homo sapiens, UniProt P16234); assay: Navigating the Kinome. Panel member name: PDGFRA; assay type: functional
[38] = target: BDNF/NT-3 growth factors receptor (Homo sapiens, UniProt Q16620); assay type: functional;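 further: NTRK2 measured as one member of a broad kinome-wide kinase profiling panel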
[39] = target: Leukocyte tyrosine kinase receptor (Homo sapiens, UniProt P29376); assay: Navigating the Kinome. Panel member name: LTK; assay type: functional

Serine/threonine-protein kinase PLK3, sequence (Q9H4B4 whole entry): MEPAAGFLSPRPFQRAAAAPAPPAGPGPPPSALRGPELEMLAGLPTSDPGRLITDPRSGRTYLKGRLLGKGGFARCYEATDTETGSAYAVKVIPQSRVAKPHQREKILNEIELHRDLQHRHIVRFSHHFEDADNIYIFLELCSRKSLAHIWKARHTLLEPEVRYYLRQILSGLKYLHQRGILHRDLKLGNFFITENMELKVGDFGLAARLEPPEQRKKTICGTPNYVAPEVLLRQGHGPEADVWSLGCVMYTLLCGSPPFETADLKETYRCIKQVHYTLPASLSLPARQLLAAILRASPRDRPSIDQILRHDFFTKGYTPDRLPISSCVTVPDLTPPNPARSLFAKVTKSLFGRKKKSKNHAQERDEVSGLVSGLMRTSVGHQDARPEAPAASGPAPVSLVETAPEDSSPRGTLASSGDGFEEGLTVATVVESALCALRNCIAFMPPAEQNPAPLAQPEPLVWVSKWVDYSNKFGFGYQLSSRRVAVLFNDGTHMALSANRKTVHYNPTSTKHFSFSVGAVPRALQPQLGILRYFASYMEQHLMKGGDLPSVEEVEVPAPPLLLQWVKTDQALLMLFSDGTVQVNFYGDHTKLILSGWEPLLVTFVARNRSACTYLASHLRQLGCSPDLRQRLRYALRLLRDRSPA

## O=C(Nc1ccccc1)Nc1ccccn1
[1]
  Ki: > 100 µM (inactive)
[2]
  Ki: > 79.4 µM (inactive)
[3]
  Ki: > 100 µM (inactive)
[4]
  Ki: > 39.8 µM (inactive)
[5]
  Ki: 79.4 µM (active)
Aurora kinase A
  Ki: > 63.1 µM (inactive)
[6]
  Ki: > 50.1 µM (inactive)
Insulin receptor
  Ki: > 50.1 µM (inactive)
[7]
  Ki: 50.1 µM (active)
[8]
  Ki: > 79.4 µM (inactive)
[9]
  Ki: 3.16 µM (active)
[10]
  Ki: > 79.4 µM (inactive)
[11]
  Ki: > 100 µM (inactive)
Aurora kinase B
  Ki: 79.4 µM (active)
[12]
  Ki: > 79.4 µM (inactive)
[13]
  Ki: > 100 µM (inactive)
[14]
  Ki: > 79.4 µM (inactive)
[15]
  Ki: > 63.1 µM (inactive)
[16]
  Ki: > 50.1 µM (inactive)
[17]
  Ki: > 63.1 µM (inactive)
[18]
  Ki: > 79.4 µM (inactive)

## CC(C)(C)c1cc(C(c2cccnc2)N2CCN(CCO)CC2)cc(C(C)(C)C)c1O (stereo not drawn)
[19]
  IC50: 4.68 µM (active)
[20]
  IC50: 3.96 µM (active)
[21]
  EC50: 3.77 µM (active)
[22]
  EC50: 0.488 µM (active)
[23]
  EC50: 3.45 µM (active)
[24]
  EC50: 4.59 µM (active)
[25]
  IC50: 35.9 µM (inactive)
Beta-galactosidase
  IC50: > 66.6 µM (inactive)
[26]
  AC50: 20 µM (active)
[27]
  AC50: 24 µM (active)
Protein RecA
  EC50: 17.3 µM (active)
[28]
  EC50: 7.35 µM (inactive)
Melanocortin receptor 4
  IC50: 25.1 µM (inactive)
[29]
  AC50: 1.7 µM (active)
[30]
  AC50: 25.2 µM (active)
[31]
  AC50: 7.04 µM (active)
[32]
  IC50: > 64.6 µM (inactive)

## CN(C)CCCN(C)C(=O)C1Cc2[nH]cnc2C2(CCCCC2)N1 (stereo not drawn)
[33]
  Ki: 2.51 µM (active)
[34]
  Ki: 3.16 µM (active)

## COc1cc(Nc2ncc3c(n2)-c2ccc(Cl)cc2C(c2c(F)cccc2OC)=NC3)ccc1C(=O)O [ALISERTIB]
[35]
  Ki: 0.316 µM (active)
Activin receptor type-1
  Ki: > 3.98 µM (inactive)
[36]
  Ki: 0.316 µM (active)
[8]
  Ki: > 1 µM (inactive)
[37]
  Ki: > 1 µM (inactive)
[38]
  Ki: 1 µM (active)
[16]
  Ki: 0.631 µM (active)
[39]
  Ki: 0.398 µM (active)
